The values below come from patent publication US10780090B2, “Heteroaryl compounds useful as inhibitors of SUMO activating enzyme” (Millennium Pharmaceuticals, Inc., priority 2014, dated 2020).

This assay has as its target recombinant human SAE enzyme (Homo sapiens (Human), UniProt Q9UBT2). In words: SAE HTRF enzyme assay. It counts as biochemical. The settings on record: for inhibition at 0.111 µM: read-out: Percent Inhibition. The procedure, abridged: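 Sumoylation of Ubc9-GST by SAE was followed at low ATP (0.5 μM), pH 7.5, 24° C. for 105 min. Product was detected by HTRF with antibody pairs against Flag and GST tags.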
In general terms: In TR-FRET formats the signal depends on donor and acceptor labels being close together.

[1] abbreviates: SAE inhibition at compound concentration 0.111 μM.
The mark [2] stands for this setting: SAE inhibition, class symbols, legend in nM.

Molecules are shown by their SMILES. Some results are limits rather than exact numbers.

Sequence of recombinant human SAE enzyme (Q9UBT2 whole entry): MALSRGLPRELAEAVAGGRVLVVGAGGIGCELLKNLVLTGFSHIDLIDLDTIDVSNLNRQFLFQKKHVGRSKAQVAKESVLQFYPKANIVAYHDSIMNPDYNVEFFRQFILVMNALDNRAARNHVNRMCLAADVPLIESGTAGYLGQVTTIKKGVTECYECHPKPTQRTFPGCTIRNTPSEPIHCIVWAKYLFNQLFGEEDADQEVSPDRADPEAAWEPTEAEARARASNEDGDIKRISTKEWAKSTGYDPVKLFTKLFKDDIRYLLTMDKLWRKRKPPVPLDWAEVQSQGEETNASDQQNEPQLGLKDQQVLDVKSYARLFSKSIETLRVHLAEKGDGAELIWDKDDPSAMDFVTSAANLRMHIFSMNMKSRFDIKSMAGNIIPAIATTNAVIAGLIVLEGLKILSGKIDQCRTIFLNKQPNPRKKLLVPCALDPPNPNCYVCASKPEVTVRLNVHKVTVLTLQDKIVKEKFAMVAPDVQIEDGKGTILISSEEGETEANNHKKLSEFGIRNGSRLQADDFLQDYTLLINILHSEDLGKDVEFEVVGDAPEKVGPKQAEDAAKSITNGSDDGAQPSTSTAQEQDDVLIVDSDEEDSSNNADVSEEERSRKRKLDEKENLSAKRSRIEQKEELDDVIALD
Sequence of recombinant human SAE enzyme (Q9UBE0 whole entry partner): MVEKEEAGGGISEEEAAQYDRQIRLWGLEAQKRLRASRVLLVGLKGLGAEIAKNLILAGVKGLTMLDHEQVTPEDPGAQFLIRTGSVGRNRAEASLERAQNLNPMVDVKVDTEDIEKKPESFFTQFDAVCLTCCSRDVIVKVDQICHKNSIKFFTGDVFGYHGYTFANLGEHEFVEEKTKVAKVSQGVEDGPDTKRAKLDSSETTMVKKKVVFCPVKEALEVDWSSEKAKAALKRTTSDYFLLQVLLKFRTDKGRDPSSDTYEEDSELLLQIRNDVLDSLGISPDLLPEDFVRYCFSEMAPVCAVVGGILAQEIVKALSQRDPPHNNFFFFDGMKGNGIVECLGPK

Usually IC50 stands for the concentration that gives 50% inhibition. Take `Cc1sc(C(=O)c2cncnc2N[C@@H]2C[C@H](COS(N)(=O)=O)[C@@H](O)C2)cc1[S@+]([O-])c1cccc(Cl)c1.Cc1sc(C(=O)c2cncnc2N[C@@H]2C[C@H](COS(N)(=O)=O)[C@@H](O)C2)cc1[S@@+]([O-])c1cccc(Cl)c1` (mixture of isomers) [I-28, [(1R,2S,4R)-4-{[5-({4-[(R)-(3-chlorophenyl)sulfinyl]-5-methyl-2-thienyl}carbonyl)pyrimidin-4-yl]amino}-2-hydroxycyclopentyl]methyl sulfamate and [(1R,2S,4R)-4-{[5-({4-[(S)-(3-chlorophenyl)sulfinyl]-5-methyl-2-thienyl}carbonyl)pyrimidin-4-yl]amino}-2-hydroxycyclopentyl]methyl sulfamate]: the “Percent Inhibition” value (Concentration 0.111 μM) came out at 98. The IC50 (class symbols A/B/C) is less than 10 nM.
In the same order, the values of `NS(=O)(=O)OC[C@H]1C[C@@H](Nc2ncncc2C(=O)c2cc([C@H](O)c3cccc(Cl)c3)co2)C[C@@H]1O` (single isomer, unassigned) [I-42b, {(1R,2S,4R)-4-[(5-{4-[(R)-(3-chlorophenyl)(hydroxy)methyl]-2-furoyl}pyrimidin-4-yl)amino]-2-hydroxycyclopentyl}methyl sulfamate or {(1R,2S,4R)-4-[(5-{4-[(S)-(3-chlorophenyl)(hydroxy)methyl]-2-furoyl}pyrimidin-4-yl)amino]-2-hydroxycyclopentyl}methyl sulfamate] are 99 and less than 10 nM.
Take `NS(=O)(=O)OC[C@H]1C[C@@H](Nc2ncncc2C(=O)c2cc([C@@H]3OCCc4cnc(Cl)cc43)c(Cl)s2)C[C@@H]1O` (mixture of isomers) [I-323, [(1R,2S,4R)-4-{[5-({5-chloro-4-[(1R)-7-chloro-3,4-dihydro-1H-pyrano[4,3-c]pyridin-1-yl]-2-thienyl}carbonyl)pyrimidin-4-yl]amino}-2-hydroxycyclopentyl]methyl sulfamate and [(1R,2S,4R)-4-{[5-({5-chloro-4-[(1S)-7-chloro-3,4-dihydro-1H-pyrano[4,3-c]pyridin-1-yl]-2-thienyl}carbonyl)pyrimidin-4-yl]amino}-2-hydroxycyclopentyl]methyl sulfamate]: the “Percent Inhibition” value under setting [1] was determined as 90%. The IC50 under setting [2] lay in the range of 10 to 100 nM.
By inhibition is commonly meant the percentage by which the read-out fell short of the control. As to `NS(=O)(=O)OC[C@H]1C[C@@H](Nc2ncncc2C(=O)c2cc(Cc3cccc(Cl)c3F)cs2)C[C@@H]1O` [I-84, {(1R,2S,4R)-4-[(5-{[4-(3-chloro-2-fluorobenzyl)-2-thienyl]carbonyl}pyrimidin-4-yl)amino]-2-hydroxycyclopentyl}methyl sulfamate], for the setting “Concentration 0.111 μM”, the inhibition at 0.111 µM stood at 98%. Also, where the note is “class symbols A/B/C”, the IC50 was less than 10 nM.
As to `NS(=O)(=O)OC[C@H]1C[C@@H](Nc2ncncc2C(=O)c2cc([C@@H]3OCCc4ccc(F)cc43)cs2)C[C@@H]1O` (single isomer, unassigned) [I-267, [(1R,2S,4R)-4-{[5-({4-[(1R)-7-Fluoro-3,4-dihydro-1H-isochromen-1-yl]-2-thienyl}carbonyl)pyrimidin-4-yl]amino}-2-hydroxycyclopentyl]methyl sulfamate or [(1R,2S,4R)-4-{[5-({4-[(1S)-7-Fluoro-3,4-dihydro-1H-isochromen-1-yl]-2-thienyl}carbonyl)pyrimidin-4-yl]amino}-2-hydroxycyclopentyl]methyl sulfamate], for the setting “Concentration 0.111 μM”, the “Percent Inhibition” value came to 97. Besides, the IC50 (class symbols A/B/C) is less than 10 nM.
Taken in the same sequence, the figures for `NS(=O)(=O)OC[C@H]1C[C@@H](Nc2ncncc2C(=O)c2cc(C(=O)c3ccccc3)c(Cl)s2)C[C@@H]1O` [I-215, [(1R,2S,4R)-4-({5-(4-Benzoyl-5-chlor-2-thienyl)carbonyl]pyrimidin-4-yl}amino)-2-hydroxycyclopentyl]methyl sulfamate] were 36 and 100 to 1000 nM.
Taken in the same sequence, the figures for `NS(=O)(=O)OC[C@H]1C[C@@H](Nc2ncncc2C(=O)c2cc([C@@H]3NCCc4ccc(Cl)cc43)c(Cl)s2)[C@H](O)[C@@H]1O` (single isomer, unassigned) [I-249b, [(1R,2R,3S,4R)-4-{[5-({5-chloro-4-[(1R)-7-chloro-1,2,3,4-tetrahydroisoquinolin-1-yl]-2-thienyl}carbonyl)pyrimidin-4-yl]amino}-2,3-dihydroxycyclopentyl]methyl sulfamate or [(1R,2R,3S,4R)-4-{[5-({5-chloro-4-[(1S)-7-chloro-1,2,3,4-tetrahydroisoquinolin-1-yl]-2-thienyl}carbonyl)pyrimidin-4-yl]amino}-2,3-dihydroxycyclopentyl]methyl sulfamate] were 92 and less than 10 nM.
In the same order, the values of `N[C@H](c1cccc(Br)c1)c1cc(C(=O)c2cncnc2N[C@@H]2C[C@H](COS(N)(=O)=O)[C@@H](O)[C@H]2O)sc1Cl` (single isomer, unassigned) [I-24a, [(1R,2R,3S,4R)-4-{[5-({4-[(R)-amino(3-bromophenyl)methyl]-5-chloro-2-thienyl}carbonyl)pyrimidin-4-yl]amino}-2,3-dihydroxycyclopentyl]methyl sulfamate or [(1R,2R,3S,4R)-4-{[5-({4-[(S)-amino(3-bromophenyl)methyl]-5-chloro-2-thienyl}carbonyl)pyrimidin-4-yl]amino}-2,3-dihydroxycyclopentyl]methyl sulfamate] are 101 and less than 10 nM.
Consider `CC(C)Oc1ccccc1OCc1csc(C(=O)c2cncnc2N[C@@H]2C[C@H](COS(N)(=O)=O)[C@@H](O)C2)c1` [I-201, [(1R,2S,4R)-2-hydroxy-4-{[5-({4-[(2-isopropoxyphenoxy)methyl]-2-thienyl}carbonyl)pyrimidin-4-yl]amino}cyclopentyl]methyl sulfamate], for which the inhibition at 0.111 µM (Concentration 0.111 μM) is 60%. Also, the IC50 (class symbols A/B/C) fell in the range of 10 to 100 nM.
In the case of `COc1ccc2c(c1)[C@H](c1cc(C(=O)c3cncnc3N[C@@H]3C[C@H](COS(N)(=O)=O)[C@@H](O)C3)sc1C)OCC2` (mixture of isomers) [I-341, [(1R,2S,4R)-2-hydroxy-4-{[5-({4-[(1R)-7-methoxy-3,4-dihydro-1H-isochromen-1-yl]-5-methyl-2-thienyl}carbonyl)pyrimidin-4-yl]amino}cyclopentyl]methyl sulfamate and [(1R,2S,4R)-2-hydroxy-4-{[5-({4-[(1S)-7-methoxy-3,4-dihydro-1H-isochromen-1-yl]-5-methyl-2-thienyl}carbonyl)pyrimidin-4-yl]amino}cyclopentyl]methyl sulfamate], the “Percent Inhibition” value under setting [1] is listed as 10%. In addition, the IC50 under setting [2] fell in the range of 100 to 1000 nM.
Turning to `Cc1sc(C(=O)c2cncnc2N[C@@H]2C[C@H](COS(N)(=O)=O)[C@@H](O)C2)cc1[C@@H]1OCCc2ccsc21` (single isomer, unassigned) [I-269b, [(1R,2S,4R)-4-{[5-({4-[(7S)-4,7-dihydro-5H-thieno[2,3-c]pyran-7-yl]-5-methyl-2-thienyl}carbonyl)pyrimidin-4-yl]amino}-2-hydroxycyclopentyl]methyl sulfamate or [(1R,2S,4R)-4-{[5-({4-[(7R)-4,7-dihydro-5H-thieno[2,3-c]pyran-7-yl]-5-methyl-2-thienyl}carbonyl)pyrimidin-4-yl]amino}-2-hydroxycyclopentyl]methyl sulfamate], the “Percent Inhibition” value (Concentration 0.111 μM) was found to be 95. In addition, the IC50 (class symbols A/B/C) was in the range of 10 to 100 nM.
Regarding `NS(=O)(=O)OC[C@H]1C[C@@H](Nc2ncncc2C(=O)c2cc(C3NCCc4ccc(Cl)cc43)cs2)C[C@@H]1O` (single isomer, unassigned) [I-274a, [(1R,2S,4R)-4-{[5-({4-[(1R)-7-chloro-1,2,3,4-tetrahydroisoquinolin-1-yl]-2-thienyl}carbonyl)pyrimidin-4-yl]amino}-2-hydroxycyclopentyl]methyl sulfamate or [(1R,2S,4R)-4-{[5-({4-[(1S)-7-chloro-1,2,3,4-tetrahydroisoquinolin-1-yl]-2-thienyl}carbonyl)pyrimidin-4-yl]amino}-2-hydroxycyclopentyl]methyl sulfamate], the “Percent Inhibition” value (Concentration 0.111 μM) is recorded as 98. In addition, the IC50 (class symbols A/B/C) is less than 10 nM.
In the same order, the values of `CO[C@@H](c1cccc(Br)c1)c1csc(C(=O)c2cncnc2N[C@@H]2C[C@H](COS(N)(=O)=O)[C@@H](O)C2)c1` (single isomer, unassigned) [I-73a, [(1R,2S,4R)-4-{[({(4-[(S)-(3-Bromophenyl)(methoxy)methyl]-2-thienyl}carbonyl)pyrimidin-4-yl]amino}-2-hydroxycyclopentyl]methyl sulfamate or [(1R,2S,4R)-4-{[5-({4-[(R)-(3-Bromophenyl)(methoxy)methyl]-2-thienyl}carbonyl)pyrimidin-4-yl]amino}-2-hydroxycyclopentyl]methyl sulfamate] are 98 and less than 10 nM.
In the case of `Cc1sc(C(=O)c2cncnc2N[C@@H]2C[C@H](COS(N)(=O)=O)[C@@H](O)C2)cc1[C@@H]1OCCc2oc(Cl)cc21` (mixture of isomers) [I-298, [(1R,2S,4R)-4-{[5-({4-[(4R)-2-chloro-6,7-dihydro-4H-furo[3,2-c]pyran-4-yl]-5-methyl-2-thienyl}carbonyl)pyrimidin-4-yl]amino}-2-hydroxycyclopentyl]methyl sulfamate and [(1R,2S,4R)-4-{[5-({4-[(4S)-2-chloro-6,7-dihydro-4H-furo[3,2-c]pyran-4-yl]-5-methyl-2-thienyl}carbonyl)pyrimidin-4-yl]amino}-2-hydroxycyclopentyl]methyl sulfamate], the “Percent Inhibition” value under setting [1] is 96%. Also, the IC50 under setting [2] was less than 10 nM.
As to `CCOc1ccccc1OCc1csc(C(=O)c2cncnc2N[C@@H]2C[C@H](COS(N)(=O)=O)[C@@H](O)C2)c1` [I-156, [(1R,2S,4R)-4-{[5-({4-[(2-ethoxyphenoxy)methyl]-2-thienyl}carbonyl)pyrimidin-4-yl]amino}-2-hydroxycyclopentyl]methyl sulfamate], the inhibition at 0.111 µM (Concentration 0.111 μM) is 92%. Also, under “class symbols A/B/C”, the concentration for half-maximal inhibition (IC50) is less than 10 nM.
